From article PMC8921064 (Archives of Toxicology, 2022)
Several values for one entry are separate records, joined by “and”; a condition that tells them apart may be missing. Equal entries are not always repeated.

What was measured:
[1] = tested on: Salmonella typhimurium TA100; experiment: Reverse mutation assay (Ames test), TA100; details: for His + revertant colonies TA100 without S9-mix: mean ± SD of 3 plates; for Cytotoxicity at the test doses: TA100, absence of S9 mix; for Increase in the number of revertants compared to the concurrent solvent control: TA100, presence of 5% S9-mix, 10–100 µg; for Mutagenicity (conclusion): TA100, positive if more than twofold over control
Protocol: (§1) Six concentrations of each compound were tested in triplicate in the absence and presence of 5% (v/v) S9-mix prepared from the livers of Aroclor 1254 treated Sprague–Dawley rats. The S9-mix contained 4 mM NADP, 5.8 mM glucose-6-phosphate, 0.1 M sodium phosphate pH 7.4, 8 mM MgCl2, 33 mM KCl and 5% S9 homogenate. Fresh bacterial cultures were prepared overnight to reach 10^9 cells/ml. The following solutions were pre-incubated in a rotating incubator at 70 rpm and 37 °C, and contained either 0.5 ml S9-mix (in case of S9 presence) or 0.5 ml 0.1 M potassium phosphate pH 7.4 (in case of S9 absence), 0.1 ml of a fresh bacterial culture (10^9 cells/ml) of TA98 or TA100, and 10–100 µg test compound. Top agar was melted and heated to 45 °C. After preincubation, the substrate solutions were added to 3 ml of the molten top agar and mixed by vortexing and the top agar mixture was poured onto a minimal glucose agar plate. After solidification of the top agar, the plates were incubated at 37 °C for 48 h. The number of revertant colonies per plate was automatically counted with the Instem Sorcerer Colony Counter (Staffordshire, UK). In the absence of S9-mix, 2-nitrofluorene (NF) and methylmethanesulfonate (MMS) were tested as positive controls for incubations with TA98 and TA100, respectively. In the presence of S9-mix, 2-aminoanthracene (2AA) was tested as a positive control in both TA98 and TA100. DMSO was tested as a solvent control in both tester strains.

[2] = tested on: rat liver microsomes (RLM); experiment: Rat liver microsomal incubation, metabolite formation quantified by UPLC; details: RLM
Protocol: (§2) The incubation mixtures were prepared and incubated in glass vials to avoid plastic binding of the substrates. The glass vials were capped to prevent substrate loss due to volatility. After preincubation of the incubation mixture at 37 °C for 1 min, the enzymatic reaction was initiated by adding microsomes to the incubation mixture which was subsequently incubated at 37 °C for 20 min. The reaction was terminated by adding 100 µl ice-cold acetonitrile followed by vortexing. After 5 min centrifugation at 5000 rpm (4000 × g), 4 °C, the supernatant was collected for ultraperformance liquid chromatography (UPLC) analysis. […] Therefore, a diisopropylether (DIPE) extraction of the metabolites was performed after the reaction was stopped by the addition of 20 µl 10% HClO4. To this end, the incubation mixture (total volume of 220 µl) was extracted three times with 1 ml DIPE. Each time, the upper organic layer was collected and the DIPE was subsequently evaporated from the combined organic fractions with a gentle stream of nitrogen. The residues were dissolved in 100 µl methanol and analyzed by UPLC.
(§3) The metabolites formed were analyzed and quantified using an Acquity UPLC system equipped with a photodiode array (PDA) detector (Waters, Milford, MA). The metabolites and their parent compound were separated on a reverse phase Acquity UPLC® BEH C18 column ([…], 1.7 µm, Waters, Milford, MA) and detected at wavelengths ranging from 190 to 400 nm. Eluent A was nano-pure water containing 0.1% trifluoroacetic acid (v/v), and eluent B was acetonitrile containing 0.1% trifluoroacetic acid (v/v). The gradient elution started from 90% A and 10% B applied from 0.0 min to 0.5 min, which was changed to 0% A and 100% B from 0.5 to 15.5 min and then kept at 0% A and 100% B from 15.5 min to 18.5 min, changed back to 90% A and 10% B from 18.5 to 18.6 min and then maintained at the starting conditions from 18.6 min until 22 min. The total run time was 22 min using a flow rate of 0.6 ml/min. The temperature of the column was set at 40 °C and that of the autosampler at 10 °C during the UPLC analysis. The injection volume was 3.5 µl. Metabolites were quantified using their peak area at the wavelength specified in Table 1, using calibration curves of available reference compounds. Metabolites were identified by comparing their retention time (RT) and UV spectrum to those of reference chemicals on UPLC. When reference chemicals were not available, metabolite identification by gas chromatography-triple quadrupole mass spectrometry (GC–MS/MS) was performed. The minor metabolites were identified by elution time and mass spectra both on UPLC and GC–MS/MS, and by comparison with available elution and spectral information from the literature.
(§4) The metabolite concentrations in the microsomal incubation mixtures as quantified by UPLC were used to calculate the rate of the enzymatic conversions in pmol/min/mg microsomal protein. The kinetic parameters KM and Vmax were obtained using a nonlinear regression curve fit applying the Michaelis Menten equation in GraphPad Prism 5 (San Diego, USA). To compare the catalytic efficiency of formation of the different metabolites the intrinsic clearance (Clint) was calculated as Vmax divided by KM.

[3] = tested on: Salmonella typhimurium TA98; experiment: Reverse mutation assay (Ames test), TA98; details: for His + revertant colonies TA98 without S9-mix: mean ± SD of 3 plates; for Increase in the number of revertants compared to the concurrent solvent control: TA98, presence of 5% S9-mix, 10–100 µg; for Mutagenicity (conclusion): TA98, positive if more than threefold over control
Protocol: as §1, with “and 10–100 µg test compound.” left out

mouse skin = tested on: mouse skin; set-up: method as in Buening et al. [1979]; LaVoie et al. [1981]; details: mouse skin painting; ref Buening et al. [1979]; LaVoie et al. [1981]; cited from earlier work
[4] = tested on: human liver microsomes (HLM); experiment: Human liver microsomal incubation, metabolite formation quantified by UPLC; details: HLM
Protocol: as §2, §3, §4

[5] = substrate 10-Methyl-9-ethylphenanthrene

## COS(C)(=O)=O [MMS, methylmethanesulfonate, reference compound]
[1]; positive control, 650 µg/plate MMS
  His + revertant colonies TA100 without S9-mix: 868±70 and 823±58 and 783±46

## Cc1ccc2ccc3ccccc3c2c1 [3-Methylphenanthrene]
[2]; substrate 3-Methylphenanthrene
  Vmax, formation of 3-(Hydroxymethyl)-phenanthrene RT = 5.62 min: 2593 ± 305 pmol/min/mg microsomal protein
  Vmax, formation of 3-Methylphennathrol RT = 6.98 min: 82.6 ± 53.8 pmol/min/mg microsomal protein
  Vmax, formation of Dihydro-3-methylphenanthrene-diol RT = 4.25 min: 92.3 ± 25.1 pmol/min/mg microsomal protein
  Vmax, formation of Dihydro-3-methylphenanthrene-diol RT = 4.42 min: 20.4 ± 1.7 pmol/min/mg microsomal protein
[3]; 2 µg/plate
  His + revertant colonies TA98 without S9-mix: 16±3
[3]; 4 µg/plate
  His + revertant colonies TA98 without S9-mix: 17±4
[3]; 10 µg/plate
  His + revertant colonies TA98 without S9-mix: 14±1
[3]; 20 µg/plate
  His + revertant colonies TA98 without S9-mix: 13±2
[3]; 40 µg/plate
  His + revertant colonies TA98 without S9-mix: 9±4
[3]; TA98, absence of S9 mix
  Cytotoxicity at the test doses: showed cytotoxicity
[3]
  Increase in the number of revertants compared to the concurrent solvent control: 2.2 fold
  Mutagenicity (conclusion): non-mutagenic
[3]; TA98 without S9-mix, 40 µg/plate
  Bacterial background lawn: S
Mouse skin
  Tumor-initiating activity: neither phenanthrene nor its monomethylated analogs
[4]; substrate 3-Methylphenanthrene
  Vmax, formation of 3-(Hydroxymethyl)-phenanthrene RT = 5.62 min: 583.8 ± 19.6 pmol/min/mg microsomal protein
  Vmax, formation of Dihydro-3-methylphenanthrene-diol RT = 4.25 min: 65.0 ± 4.1 pmol/min/mg microsomal protein
  Vmax, formation of Dihydro-3-methylphenanthrene-diol RT = 4.42 min: 12.8 ± 0.8 pmol/min/mg microsomal protein
[1]; 2 µg/plate
  His + revertant colonies TA100 without S9-mix: 112±14
[1]; 4 µg/plate
  His + revertant colonies TA100 without S9-mix: 112±9
[1]; 10 µg/plate
  His + revertant colonies TA100 without S9-mix: 119±11
[1]; 20 µg/plate
  His + revertant colonies TA100 without S9-mix: 83±34
[1]; 40 µg/plate
  His + revertant colonies TA100 without S9-mix: 75±4
[1]
  Cytotoxicity at the test doses: showed cytotoxicity
  Increase in the number of revertants compared to the concurrent solvent control: no increased response was found
  Mutagenicity (conclusion): non-mutagenic

## O=[N+]([O-])c1ccc2c(c1)Cc1ccccc1-2 [NF, 2-nitrofluorene, reference compound]
[3]; positive control, 10 µg/plate NF
  His + revertant colonies TA98 without S9-mix: 1590±295

## CCc1c(C)c2ccccc2c2ccccc12 [10-Methyl-9-ethylphenanthrene]
[2]; [5]
  Vmax, formation of 9-(1-Hydroxyethyl)-10-methylphenanthrene RT = 6.65 min: 630.2 ± 81.4 pmol/min/mg microsomal protein
  Vmax, formation of 9-(2-Hydroxyethyl)-10-methylphenanthrene RT = 6.5 min: 21.0 ± 3.1 pmol/min/mg microsomal protein
  Vmax, formation of 9-Ethyl-10-(1-hydroxymethyl)-phenanthrene RT = 6.90 min: 85.8 ± 11.6 pmol/min/mg microsomal protein
  Vmax, formation of 9-Ethyl-10-methylphenanthrol RT = 7.82 min: 65.6 ± 9.8 pmol/min/mg microsomal protein
  Vmax, formation of 9-Ethyl-10-methylphenanthrol RT = 8.3 min: 29.4 ± 7.7 pmol/min/mg microsomal protein
  Vmax, formation of Dihydro-10-methyl-9-ethylphenanthrene-diol RT = 4.29 min: 6.4 ± 2.7 pmol/min/mg microsomal protein
  Vmax, formation of Dihydro-10-methyl-9-ethylphenanthrene-diol RT = 4.34 min: 8.09 ± 1.6 pmol/min/mg microsomal protein
[4]; [5]
  Vmax, formation of 9-(1-Hydroxyethyl)-10-methylphenanthrene RT = 6.65 min: 187.1 ± 45.2 pmol/min/mg microsomal protein
  Vmax, formation of 9-(2-Hydroxyethyl)-10-methylphenanthrene RT = 6.5 min: 12.9 ± 1.8 pmol/min/mg microsomal protein
  Vmax, formation of 9-Ethyl-10-(1-hydroxymethyl)-phenanthrene RT = 6.90 min: 85.9 ± 17.4 pmol/min/mg microsomal protein
  Vmax, formation of Dihydro-10-methyl-9-ethylphenanthrene-diol RT = 4.29 min: 7.2 ± 1.7 pmol/min/mg microsomal protein
  Vmax, formation of Dihydro-10-methyl-9-ethylphenanthrene-diol RT = 4.34 min: 10.5 ± 2.5 pmol/min/mg microsomal protein

## Cc1ccc2c(ccc3ccccc32)c1 [2-Methylphenanthrene]
[2]; substrate 2-Methylphenanthrene
  Vmax, formation of 2-(Hydroxymethyl)-phennathrene RT = 5.59 min: 2174 ± 115.3 pmol/min/mg microsomal protein
  Vmax, formation of 2-Methylphenanthrol RT = 6.98 min: 76.0 ± 3.1 pmol/min/mg microsomal protein
  Vmax, formation of 2-Methylphenanthrol RT = 7.08 min: 11.2 ± 0.9 pmol/min/mg microsomal protein
  Vmax, formation of Dihydro-2-methylphenanthrene-diol RT = 4.26 min: 23.1 ± 2.7 pmol/min/mg microsomal protein
  Vmax, formation of Dihydro-2-methylphenanthrene-diol RT = 4.42 min: 16.2 ± 2.5 pmol/min/mg microsomal protein
[2]; substrate 2-Methylphenanthrene, KM NA
  Vmax, formation of 2-Methylphenanthrol RT = 6.12 min: 90.7 ± 3.8 pmol/min/mg microsomal protein
[3]
  Increase in the number of revertants compared to the concurrent solvent control: 2.2 fold
  Mutagenicity (conclusion): non-mutagenic
Mouse skin
  Tumor-initiating activity: neither phenanthrene nor its monomethylated analogs
[4]; substrate 2-Methylphenanthrene
  Vmax, formation of 2-(Hydroxymethyl)-phennathrene RT = 5.59 min: 562.0 ± 27.5 pmol/min/mg microsomal protein
  Vmax, formation of 2-Methylphenanthrol RT = 6.12 min: 16.3 ± 0.8 pmol/min/mg microsomal protein
  Vmax, formation of Dihydro-2-methylphenanthrene-diol RT = 3.09 min: 6.4 ± 0.5 pmol/min/mg microsomal protein
[1]; 10 µg/plate
  His + revertant colonies TA100 without S9-mix: 106±20
[1]; 20 µg/plate
  His + revertant colonies TA100 without S9-mix: 98±13
[1]; 40 µg/plate
  His + revertant colonies TA100 without S9-mix: 70±8
[1]
  Cytotoxicity at the test doses: showed cytotoxicity
  Increase in the number of revertants compared to the concurrent solvent control: no increased response was found
  Mutagenicity (conclusion): non-mutagenic
